A word on the ED50: it is the dose that gives a 50% effect, or the effect in half of the subjects. A word on the IC50: it is the midpoint of a concentration-inhibition curve. Higher therefore signals lower potency. The Kb is the affinity of an antagonist, worked out from how it opposes an agonist. Lower therefore signals higher antagonist affinity.

The species named for assay [1] is Mus musculus. Put plainly: Effective dose required to protect against audiogenic seizure in DBA/2 mice. The class given is functional.
The target of assay [2] is Glutamate receptor ionotropic, NMDA 1 (Rattus norvegicus, UniProt P35439). Put plainly: Compound was evaluated for its ability to displace [3H]-L-689,560 from rat cortical membrane.
Assay [3] concerns the target Glutamate receptor ionotropic, NMDA 1 (Rattus norvegicus) (UniProt P35439). Put plainly: Ability of compound to antagonize NMDA induced responses in rat cortical slice. The class given is functional.
The test system of assay [4] is Mus musculus. Put plainly: Effective dose required to protect against audiogenic seizure in DBA/2 mice at 10 mg/kg; number protected / number tested is 1/8. The class given is functional, organism-based. Also on record: dose 10 mg/kg.
In assay [5] the test system is Mus musculus. Put plainly: Effective dose required to protect against audiogenic seizure in DBA/2 mice at 20 mg/kg; number protected / number tested is 8/8. In kind it is functional, organism-based. Further details: dose 20 mg/kg.
Assay [6] has as its system Mus musculus. Put plainly: Effective dose required to protect against audiogenic seizure in DBA/2 mice at 10 mg/kg; number protected / number tested is 4/8. The class given is functional, organism-based. Also on record: dose 10 mg/kg.

Calls of active or inactive are those of the source. The rule behind the calls is not given here.

In the case of `O=c1[nH]c2cc(Cl)ccc2c(O)c1-c1ccccc1`, the 50% effective dose (ED50) in assay [1] came to 4.5 mg/kg.
For the molecule `CC1CCc2c([nH]c(=O)c(-c3cccc(Oc4ccccc4)c3)c2O)C1` (stereo not drawn), the concentration for half-maximal inhibition (IC50) in assay [2] was determined as 0.057 µM. This lies in the double-digit nanomolar range.
`CC1CCc2c(nc(O)c(-c3ccccc3)c2O)C1` (stereo not drawn) came in with a Kb in assay [3] of 3.7 µM. Besides, the ED50 entry in assay [4] was “inactive”. The ED50 entry in assay [5] is “Active”.
On to `Cc1[nH]c(=O)c(-c2ccccc2)c(O)c1C`, for which, in assay [2], the concentration for half-maximal inhibition (IC50) was > 100 µM.
`CC1CCc2c(nc(O)c(-c3cccc(Oc4ccccc4)c3)c2O)C1` (stereo not drawn) displayed a Kb in assay [3] of 0.35 µM. The ED50 entry in assay [4] was “inactive”.
In assay [1], `O=c1[nH]c2cc(Cl)ccc2c(O)c1-c1cccc(Oc2ccccc2)c1` yielded an ED50 of 0.88 mg/kg.
`CC1CCc2c([nH]c(=O)c(-c3ccccc3)c2O)C1` (stereo not drawn): in assay [2], the IC50 amounted to 3.5 µM.
Same read-out and setting: for `CCCc1nc(O)c(-c2ccccc2)c(O)c1C` the value was ~100 µM.
For the molecule `Cc1ccc2c(O)c(-c3cccc(Oc4ccccc4)c3)c(=O)[nH]c2c1`, the half-inhibitory concentration (IC50) in assay [2] amounted to 0.02 µM.
Turning to `Cc1ccc2c(O)c(-c3cccc(Oc4ccccc4)c3)c(O)nc2c1`, in assay [6], the median effective dose (ED50) entry is “Weak activity”.

The values are drawn from ChEMBL document CHEMBL1128656, “5,6,7,8-Tetrahydroquinolones as antagonists at the glycine site of the NMDA receptor” (Bioorg Med Chem Lett, 1995).
